Reference: patent publication US7608619B2, “Substituted oxazole compounds with analgesic activity” (Gruenenthal GmbH, priority 2005, dated 2009)

biological target: T1, human μ-opiate receptor (Homo sapiens, UniProt P35372); test: Affinity for the human μ-opiate receptor ([3H]-naloxone displacement, SPA, CHO-K1 membrane preparation); settings: test substance 1 μmole/l; displacement of 1 nmole/l [3H]-naloxone; percentage inhibition of the specific binding
T1 construct: purchased Nen company, Zaventem, Belgium RB-HOM; host or cells: CHO-K1 cells (membrane preparation)
Protocol: Method for Determining the Affinity for the Human μ-Opiate Receptor
The receptor affinity for the human μ-opiate receptor is determined in a homogeneous batch in microtiter plates. For this purpose dilution series of the substances to be tested are incubated for 90 minutes at room temperature with a receptor membrane preparation (15-40 μg protein/250 μl incubation batch) of CHO-K1 cells, which express the human μ-opiate receptor (RB-HOM receptor membrane preparation from the Nen company, Zaventem, Belgium), in the presence of 1 nmole/l of the radioactive ligand [^3H]-naloxone (NET719, Nen company, Zaventem, Belgium) and 1 mg WGA-SPA beads (wheat germ agglutinin SPA beads from Amersham/Pharmacia, Freiburg, Germany) in a total volume of 250 μl. 50 mmole/l of Tris-HCl supplemented with 0.05% sodium azide and with 0.06% bovine serum albumin is used as incubation buffer. In order to determine the non-specific binding, 25 μmole/l of naloxone is additionally added. After the end of the 90 minutes' incubation time the microtiter plates are centrifuged for 20 minutes at 1000 g and the radioactivity is measured in a beta counter (Microbeta-Trilux, PerkinElmer Wallac, Freiburg, Germany). The percentage displacement of the radioactive ligand from its binding to the human μ-opiate receptor at a concentration of the test substances of 1 μmole/l is determined and is given as percentage inhibition of the specific binding.

T1 sequence (P35372 whole entry): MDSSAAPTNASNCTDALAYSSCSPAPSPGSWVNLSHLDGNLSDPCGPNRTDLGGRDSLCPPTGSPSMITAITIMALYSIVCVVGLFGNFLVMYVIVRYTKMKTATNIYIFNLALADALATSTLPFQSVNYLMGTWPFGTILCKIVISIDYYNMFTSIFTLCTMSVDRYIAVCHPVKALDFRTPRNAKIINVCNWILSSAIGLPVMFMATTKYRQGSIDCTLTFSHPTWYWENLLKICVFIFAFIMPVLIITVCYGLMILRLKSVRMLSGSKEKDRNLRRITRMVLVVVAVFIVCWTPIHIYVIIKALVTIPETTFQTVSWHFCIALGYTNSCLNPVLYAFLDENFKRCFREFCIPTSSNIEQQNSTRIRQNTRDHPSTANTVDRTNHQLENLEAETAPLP

Structure (SMILES)	μ-opioid receptor, % inhibition [1 μM]
CN(CCc1ccccc1)c1oc(C(C2CCC(C(c3ccc(F)cc3)N(C)C)CC2)N(C)c2ccccc2)nc1Cc1ccccc1 (centres unmarked) [compound 38, {4-benzyl-2-[{4-[dimethylamino-(4-fluorophenyl)-methyl]-cyclohexyl}-(methylphenylamine)-methyl]-oxazol-5-yl}-methylphenethylamine]	62%
CN(CCc1ccccc1)c1oc(C(C2CCC(C(c3ccc(Cl)cc3)N(C)C)CC2)N(C)c2ccccc2)nc1Cc1ccccc1 (centres unmarked) [compound 43, {4-benzyl-2-[{4-[(4-chlorophenyl)-dimethylaminomethyl]-cyclohexyl}-(methylphenylamine)-methyl]-oxazol-5-yl}-methylphenethylamine]	72%

same assay, conditions: test substance 1 μmole/l; displacement of 1 nmole/l [3H]-naloxone; percentage inhibition of the specific binding; read-out: μ-opioid receptor, % inhibition [1 μM]

Structure (SMILES)	inhibition at 1 µM
CCN(CC)C(c1nc(Cc2ccccc2)c(N2CCN(Cc3ccccc3)CC2)o1)C1CCC(C(c2cccs2)N(C)C)CC1 (centres unmarked) [compound 28, {[4-benzyl-5-(4-benzyl-piperazin-1-yl)-oxazol-2-yl]-[4-(dimethylamino-thiophen-2-yl-methyl)-cyclohexyl]-methyl}-diethylamine]	72%
CCN(CC)C(c1nc(Cc2ccccc2)c(N2CCC(C)CC2)o1)C1CCC(C(c2cccs2)N(C)C)CC1 (centres unmarked) [compound 29, {[4-benzyl-5-(4-methylpiperidin-1-yl)-oxazol-2-yl]-[4-(dimethylamino-thiophen-2-yl-methyl)-cyclohexyl]-methyl}-diethylamine]	95%
CCN(CC)C(c1nc(Cc2ccccc2)c(N(C)Cc2ccccc2)o1)C1CCC(C(c2cccs2)N(C)C)CC1 (centres unmarked) [compound 30, Benzyl-(4-benzyl-2-{diethylamino-[4-(dimethylaminothiophen-2-yl-methyl)-cyclohexyl]-methyl}-oxazol-5-yl)-methylamine]	92%
CCN(CC)C(c1nc(Cc2ccccc2)c(N2CCN(c3ccccc3)CC2)o1)C1CCC(C(c2cccs2)N(C)C)CC1 (centres unmarked) [compound 31, {[4-benzyl-5-(4-phenylpiperazin-1-yl)-oxazol-2-yl]-[4-(dimethylamino-thiophen-2-yl-methyl)-cyclohexyl]-methyl}-diethylamine]	62%
CN(C)C(c1cccs1)C1CCC(C(c2nc(Cc3ccccc3)c(N3CCC(Cc4ccccc4)CC3)o2)N2CCN(Cc3ccccc3)CC2)CC1 (centres unmarked) [compound 32, ({4-[[4-benzyl-5-(4-benzylpiperidin-1-yl)-oxazol-2-yl]-(4-benzylpiperazin-1-yl)-methyl]-cyclohexyl}-thiophen-2-yl-methyl)-dimethylamine]	75%
CC1CCCN(c2oc(C(C3CCC(C(c4ccc(F)cc4)N(C)C)CC3)N3CCCCC3)nc2Cc2ccccc2)C1 (centres unmarked) [compound 33, [(4-{[4-benzyl-5-(3-methylpiperidin-1-yl)-oxazol-2-yl]-piperidin-1-yl-methyl}-cyclohexyl)-(4-fluorophenyl)-methyl]-dimethylamine]	65%
CCN(CC)C(c1nc(Cc2ccccc2)c(N(C)CCc2ccccc2)o1)C1CCC(C(c2ccc(F)cc2)N(C)C)CC1 (centres unmarked) [compound 34, [4-benzyl-2-(diethylamino-{4-[dimethylamino-(4-fluorophenyl)-methyl]-cyclohexyl}-methyl)-oxazol-5-yl]-methylphenethylamine]	84%
CCN(CC)c1oc(C(C2CCC(C(c3ccc(F)cc3)N(C)C)CC2)N(CC)CC)nc1Cc1ccccc1 (centres unmarked) [compound 35, [4-benzyl-2-(diethylamino-{4-[dimethylamino-(4-fluorophenyl)-methyl]-cyclohexyl}-methyl)-oxazol-5-yl]-diethylamine]	61%
CCN(CC)C(c1nc(Cc2ccccc2)c(N2CCCC(C)C2)o1)C1CCC(C(c2ccc(F)cc2)N(C)C)CC1 (centres unmarked) [compound 36, ([4-benzyl-5-(3-methylpiperidin-1-yl)-oxazol-2-yl]-{4-[dimethylamino-(4-fluorophenyl)-methyl]-cyclohexyl}-methyl)-diethylamine]	69%
CC1CC(C)CN(c2oc(C(C3CCC(C(c4ccc(F)cc4)N(C)C)CC3)N(C)c3ccccc3)nc2Cc2ccccc2)C1 (centres unmarked) [compound 37, ([4-benzyl-5-(3,5-dimethylpiperidin-1-yl)-oxazol-2-yl]-{4-[dimethylamino-(4-fluorophenyl)-methyl]-cyclohexyl}-methyl)-methylphenylamine]	68%
CCN(CC)c1oc(C(C2CCC(C(c3ccc(Cl)cc3)N(C)C)CC2)N2CCCCC2)nc1Cc1ccccc1 (centres unmarked) [compound 39, [4-benzyl-2-({4-[(4-chlorophenyl)-dimethylaminomethyl]-cyclohexyl}-piperidin-1-yl-methyl)-oxazol-5-yl]-diethylamine]	75%
CC1CCCN(c2oc(C(C3CCC(C(c4ccc(Cl)cc4)N(C)C)CC3)N3CCCCC3)nc2Cc2ccccc2)C1 (centres unmarked) [compound 40, [(4-{[4-benzyl-5-(3-methylpiperidin-1-yl)-oxazol-2-yl]-piperidin-1-yl-methyl}-cyclohexyl)-(4-chlorophenyl)-methyl]-dimethylamine]	60%
CCN(CC)C(c1nc(Cc2ccccc2)c(N2CC(C)CC(C)C2)o1)C1CCC(C(c2ccc(Cl)cc2)N(C)C)CC1 (centres unmarked) [compound 41, ([4-benzyl-5-(3,5-dimethylpiperidin-1-yl)-oxazol-2-yl]-{4-[(4-chlorophenyl)-dimethylaminomethyl]-cyclohexyl}-methyl)-diethylamine]	64%
CC1CC(C)CN(c2oc(C(C3CCC(C(c4ccc(Cl)cc4)N(C)C)CC3)N(C)c3ccccc3)nc2Cc2ccccc2)C1 (centres unmarked) [compound 42, ([4-benzyl-5-(3,5-dimethylpiperidin-1-yl)-oxazol-2-yl]-{4-[(4-chlorophenyl)-dimethylaminomethyl]-cyclohexyl}-methyl)-methylphenylamine]	79%
CCN(CC)c1oc(C(C2CCC(C(c3ccc(Cl)cc3)N(C)C)CC2)N2CCN(Cc3ccccc3)CC2)nc1Cc1ccccc1 (centres unmarked) [compound 44, [4-benzyl-2-((4-benzylpiperazin-1-yl)-{4-[(4-chlorophenyl)-dimethylaminomethyl]-cyclohexyl}-methyl)-oxazol-5-yl]-diethylamine]	67%
CC1CC(C)CN(c2oc(C(C3CCC(C(c4cccs4)N(C)C)CC3)N3CCCCC3)nc2Cc2ccccc2)C1 (centres unmarked) [compound 45, [(4-{[4-benzyl-5-(3,5-dimethylpiperidin-1-yl)-oxazol-2-yl]-piperidin-1-yl-methyl}-cyclohexyl)-thiophen-2-yl-methyl]-dimethylamine]	71%
CN(CCc1ccccc1)c1oc(C(C2CCC(C(c3cccs3)N(C)C)CC2)N2CCCCC2)nc1Cc1ccccc1 (centres unmarked) [compound 46, (4-benzyl-2-{[4-(dimethylaminothiophen-2-yl-methyl)-cyclohexyl]-piperidin-1-yl-methyl}-oxazol-5-yl)-methylphenethylamine]	80%
CCN(CC)c1oc(C(C2CCC(C(c3cccs3)N(C)C)CC2)N2CCCCC2)nc1Cc1ccccc1 (centres unmarked) [compound 47, (4-benzyl-2-{[4-(dimethylamino-thiophen-2-yl-methyl)-cyclohexyl]-piperidin-1-yl-methyl}-oxazol-5-yl)-diethylamine]	73%
CN(C)C(c1cccs1)C1CCC(C(c2nc(Cc3ccccc3)c(N3CCSCC3)o2)N2CCCCC2)CC1 (centres unmarked) [compound 48, ({4-[(4-benzyl-5-thiomorpholin-4-yl-oxazol-2-yl)-piperidin-1-yl-methyl]-cyclohexyl}-thiophen-2-yl-methyl)-dimethylamine]	60%
CCN(CC)C(c1nc(Cc2ccccc2)c(N(C)CCc2ccccc2)o1)C1CCC(C(c2cccs2)N(C)C)CC1 (centres unmarked) [compound 49, (4-benzyl-2-{diethylamino-[4-(dimethylamino-thiophen-2-yl-methyl)-cyclohexyl]-methyl}-oxazol-5-yl)-methylphenethylamine]	90%
CCN(CC)c1oc(C(C2CCC(C(c3cccs3)N(C)C)CC2)N(CC)CC)nc1Cc1ccccc1 (centres unmarked) [compound 50, (4-benzyl-2-{diethylamino-[4-(dimethylaminothiophen-2-yl-methyl)-cyclohexyl]-methyl}-oxazol-5-yl)-diethylamine]	83%
CCN(CC)C(c1nc(Cc2ccccc2)c(N2CCCC(C)C2)o1)C1CCC(C(c2cccs2)N(C)C)CC1 (centres unmarked) [compound 51, {[4-benzyl-5-(3-methylpiperidin-1-yl)-oxazol-2-yl]-[4-(dimethylamino-thiophen-2-yl-methyl)-cyclohexyl]-methyl}-diethylamine]	100%
CN(C)C(c1cccs1)C1CCC(C(c2nc(Cc3ccccc3)c(N3CCSCC3)o2)N(C)c2ccccc2)CC1 (centres unmarked) [compound 52, {(4-benzyl-5-thiomorpholin-4-yl-oxazol-2-yl)-[4-(dimethylaminothiophen-2-yl-methyl)-cyclohexyl]-methyl}-methylphenylamine]	92%
CC1CC(C)CN(c2oc(C(C3CCC(C(c4cccs4)N(C)C)CC3)N3CCN(Cc4ccccc4)CC3)nc2Cc2ccccc2)C1 (centres unmarked) [compound 53, ({4-[[4-benzyl-5-(3,5-dimethylpiperidin-1-yl)-oxazol-2-yl]-(4-benzyl-piperazin-1-yl)-methyl]-cyclohexyl}-thiophen-2-yl-methyl)-dimethylamine]	86%
